Measured values taken from US8962690B2, “Compositions of dibromomalonamide and their use as biocides” (priority 2009, dated 2015).
Where a name gives a salt, the structure may show the parent alone. Read-outs that look alike come from different tables or passages of the source.

Key:
[1] = tested on: mixture of Pseudomonas aeruginosa, Klebsiella pneumoniae, Staphylococcus aureus, and Bacillus subtilis; assay: Growth Inhibition Assay (microtiter plate, OD580); format: cell-based; conditions: for inhibition at 0.39 µg/mL / inhibition at 0.78 µg/mL / inhibition at 1.56 µg/mL / inhibition at 3.13 µg/mL / inhibition at 6.25 µg/mL / inhibition at 12.5 µg/mL / inhibition at 25 µg/mL: 24 h
From the text: Regardless of the mechanism of action, the impact of a biocide (or combination of biocides) can be measured over time on the basis of an increase in the size of the community.
The assay measures the efficacy of one or more biocides at preventing growth of a consortium of bacteria in a dilute mineral salts medium. The medium contains (in mg/l) the following components: FeCl3.6H2O (1); CaCl2.2H2O (10); MgSO4.7H2O (22.5); (NH4)2SO4 (40); KH2PO4 (10); K2HPO4 (25.5); Yeast Extract (10); and glucose (100). After all components are added to deionized water, the pH of the medium is adjusted to 7.5. Following filter sterilization, aliquots are dispensed in 100 ul quantities to sterile microtiter plate wells. Dilutions of DBMAL and/or “Biocide B” are then added to the microtiter plate. After preparing the combinations of actives as illustrated below, each well is inoculated with 100 μl of a cell suspension containing ca. 1×10^6 cells per milliliter of a mixture of Pseudomonas aeruginosa, Klebsiella pneumoniae, Staphylococcus aureus, and Bacillus subtilis. The final total volume of medium in each well is 300 μl. Once prepared as described herein, the concentration of each active ranges from 25 ppm to 0.195 ppm as illustrated in Table 1. The resulting matrix allows testing of eight concentrations of each active and 64 combinations of actives in the ratios (of actives).
Controls (not shown) contain the medium with no biocide added. After preparing the combinations of actives as illustrated above, each well is inoculated with 100 μl of a cell suspension containing ca. 1×10^6 cells per milliliter of a mixture of Pseudomonas aeruginosa, Klebsiella pneumoniae, Staphylococcus aureus, and Bacillus subtilis. The final total volume of medium in each well is 300 μl.
Immediately after the microtiter plates are prepared, the optical density (OD) readings for each well is measured at 580 nm and the plates are then incubated at 37° C. for 24 hr. After the incubation period, the plates are gently agitated before OD580 values are collected. The OD580 values at T0 are subtracted from T24 values to determine the total amount of growth (or lack thereof) that occurs. These values are used to calculate the percent inhibition of growth caused by the presence of each biocide and each of the 64 combinations.
where • CDBMAL: Concentration of DBMAL required to inhibit ˜90% of bacterial growth when used alone • CB: Concentration of biocide (B) required to inhibit ˜90% of bacterial growth when used alone. • MDBMAL: Concentration of DBMAL required to inhibit ˜90% of bacterial growth when used in combination with biocide (B). • MB: Concentration of biocide (B) required to inhibit ˜90% of bacterial growth when used in combination with DBMAL The SI values are interpreted as follows: • SI<1: Synergistic • SI=1: Additive • SI>1: Antagonistic
In the Examples below, the amounts of biocides in the solution are measured in mg per liter of solution (mg/l). Since solution densities are approximately 1.00, the mg/l measurement corresponds to weight ppm. Both units may therefore be used interchangeably in the Examples.

[2] = tested on: mixture of Pseudomonas aeruginosa ATCC 10145 and Staphylococcus aureus ATCC 6538; assay: Kill Assay (minimum biocide concentration, MBC); format: cell-based; conditions: 2 h
Description: Kill Assay. This assay is used as a preliminary evaluation of synergy between the actives. The procedure is as follows. A mineral salts solution (0.2203 g of CaCl2, 0.1847 g of MgSO4, and 0.2033 g of NaHCO3 in 1 L water, approximately pH 8) is inoculated with equal amounts (about 10^7CFU/ml) of a mixture of Pseudomonas aeruginosa ATCC 10145 and Staphylococcus aureus ATCC 6538. Aliquots of the cell suspension are then treated with 2,2-dibromomalonamide (“DBMAL”), a surface active biocide, and their combinations at various concentration levels. […] The MBC values are then used to calculate a synergy index (SI) values. Summaries of the kill assay results are presented in the individual Examples. In each table, MBC values for each biocide and the blends tested are presented. Likewise, the Synergy Index (“SI”) values for the combinations are listed. SI is calculated with the following equation: Synergy Index=Ca/CA+Mb/CB where • Ca: Concentration of biocide A required for complete bacterial kill when used in combination with biocide B • CA: Concentration of biocide A required for complete bacterial kill when used alone • Cb: Concentration of biocide B required for complete bacterial kill when used in combination with biocide A • CB: […] Antagonistic

[3] = read-out: % Inhibition of growth by DGH
[4] = read-out: % Inhibition of growth by DDMAC

## CCCCCCCCCCCCNC(=N)N [DGH, dodecylguanidine hydrochloride]
[1]; [3]
  inhibition at 0.39 µg/mL: 3%
  inhibition at 0.78 µg/mL: 0%
  inhibition at 1.56 µg/mL: 0%
  inhibition at 3.13 µg/mL: 3%
  inhibition at 6.25 µg/mL: 52%
  inhibition at 12.5 µg/mL: 100%
  inhibition at 25 µg/mL: 100%

## CCCCCCCC[N+](C)(C)CCCCCCCC.[Cl-] [DDAC, dioctyl dimethyl ammonium chloride]
[2]; read-out: MBC, 2nd biocide DDAC
  MBC: > 150 µg/mL

## CCCCCCCCCC[N+](C)(C)CCCCCCCCCC [DDMAC, didecyldimethyl ammonium chloride]
[1]; [4]
  inhibition at 0.39 µg/mL: 12%
  inhibition at 0.78 µg/mL: 23%
  inhibition at 1.56 µg/mL: 26%
  inhibition at 3.13 µg/mL: 46%
  inhibition at 6.25 µg/mL: 100%
  inhibition at 12.5 µg/mL: 100%
  inhibition at 25 µg/mL: 100%

## NC(=O)C(Br)(Br)C(N)=O [DBMAL, 2,2-dibromomalonamide]
[2]; read-out: MBC, 1st biocide DBMAL
  MBC: 66.7 µg/mL
[1]; DBMAL alone 0.39 mg/l, 24 hr (Table 3), read-out: % Inhibition of growth by DBMAL
  inhibition at 0.39 µg/mL: 28%
[1]; DBMAL alone 0.39 mg/l, 24 hr (Table 7), read-out: % Inhibition of growth by DBMAL
  inhibition at 0.39 µg/mL: 19%
[1]; DBMAL alone 0.78 mg/l, 24 hr (Table 3), read-out: % Inhibition of growth by DBMAL
  inhibition at 0.78 µg/mL: 34%
[1]; DBMAL alone 0.78 mg/l, 24 hr (Table 5), read-out: % Inhibition of growth by DBMAL
  inhibition at 0.78 µg/mL: 3%
[1]; DBMAL alone 0.78 mg/l, 24 hr (Table 7), read-out: % Inhibition of growth by DBMAL
  inhibition at 0.78 µg/mL: 14%
[1]; DBMAL alone 1.56 mg/l, 24 hr (Table 3), read-out: % Inhibition of growth by DBMAL
  inhibition at 1.56 µg/mL: 26%
[1]; DBMAL alone 1.56 mg/l, 24 hr (Table 7), read-out: % Inhibition of growth by DBMAL
  inhibition at 1.56 µg/mL: 8%
[1]; DBMAL alone 3.13 mg/l, 24 hr (Table 3), read-out: % Inhibition of growth by DBMAL
  inhibition at 3.13 µg/mL: 1%
[1]; DBMAL alone 3.13 mg/l, 24 hr (Table 5), read-out: % Inhibition of growth by DBMAL
  inhibition at 3.13 µg/mL: 1%
[1]; DBMAL alone 3.13 mg/l, 24 hr (Table 7), read-out: % Inhibition of growth by DBMAL
  inhibition at 3.13 µg/mL: 10%
[1]; DBMAL alone 6.25 mg/l, 24 hr (Table 5), read-out: % Inhibition of growth by DBMAL
  inhibition at 6.25 µg/mL: 5%
[1]; DBMAL alone 6.25 mg/l, 24 hr (Table 7), read-out: % Inhibition of growth by DBMAL
  inhibition at 6.25 µg/mL: 16%
[1]; DBMAL alone 6.25 mg/l, 24 hr (Table 9), read-out: % Inhibition of growth by DBMAL
  inhibition at 6.25 µg/mL: 18%

## C12-C16 alkyl dimethyl benzyl ammonium chloride [ADBAC]
[1]; ADBAC alone 0.78 mg/l, 24 hr
  % Inhibition of growth by ADBAC: 6%
[1]; ADBAC alone 1.56 mg/l, 24 hr
  % Inhibition of growth by ADBAC: 50%
[1]; single active, 24 hr
  90% inhibition of growth concentration (I90): 3.13 mg/L
